Test system: yeast genes (level of expressed mRNA)
Assay: DNA chip analysis of expressed mRNA of yeast genes after 2 h culture with a toxic chemical substance
Format: cell-based, Saccharomyces cerevisiae S288C
Procedure, shortened: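 S. cerevisiae S288C grown at 25° C in YPD; toxicant added at log phase at growth-inhibitory, non-lethal levels for 2 h, untreated cells as control. Poly(A) mRNA reverse-transcribed with Cy3/Cy5-dUTP, hybridized to whole-genome chip at 65° C >12 h; value is fluorescence ratio versus untreated.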

## Oc1cc(Cl)c(Cl)cc1Cl [(6), 2,4,5-trichlorophenol]
Yeast gene YAR010C
  The level of expressed mRNA in the presence of chemical substance/The level of expressed mRNA in the absence of chemical substance: 2.3
Yeast gene YBL005W-A
  The level of expressed mRNA in the presence of chemical substance/The level of expressed mRNA in the absence of chemical substance: 1.2
Yeast gene YBL041W
  The level of expressed mRNA in the presence of chemical substance/The level of expressed mRNA in the absence of chemical substance: 1.7
Yeast gene YBL043W
  The level of expressed mRNA in the presence of chemical substance/The level of expressed mRNA in the absence of chemical substance: 26.9
Yeast gene YBL078C
  The level of expressed mRNA in the presence of chemical substance/The level of expressed mRNA in the absence of chemical substance: 2.4
Yeast gene YBR214W
  The level of expressed mRNA in the presence of chemical substance/The level of expressed mRNA in the absence of chemical substance: 0.8
Yeast gene YCL020W
  The level of expressed mRNA in the presence of chemical substance/The level of expressed mRNA in the absence of chemical substance: 1.0
Yeast gene YCL027W
  The level of expressed mRNA in the presence of chemical substance/The level of expressed mRNA in the absence of chemical substance: 1.3
Yeast gene YCR004C
  The level of expressed mRNA in the presence of chemical substance/The level of expressed mRNA in the absence of chemical substance: 1.8
Yeast gene YCR071C
  The level of expressed mRNA in the presence of chemical substance/The level of expressed mRNA in the absence of chemical substance: 2.5
Yeast gene YCR088W
  The level of expressed mRNA in the presence of chemical substance/The level of expressed mRNA in the absence of chemical substance: 2.0
Yeast gene YDL008W
  The level of expressed mRNA in the presence of chemical substance/The level of expressed mRNA in the absence of chemical substance: 2.7
Yeast gene YDL238C
  The level of expressed mRNA in the presence of chemical substance/The level of expressed mRNA in the absence of chemical substance: 2.1
Yeast gene YDR055W
  The level of expressed mRNA in the presence of chemical substance/The level of expressed mRNA in the absence of chemical substance: 3.9
Yeast gene YDR084C
  The level of expressed mRNA in the presence of chemical substance/The level of expressed mRNA in the absence of chemical substance: 2.1
Yeast gene YDR085C
  The level of expressed mRNA in the presence of chemical substance/The level of expressed mRNA in the absence of chemical substance: 2.1
Yeast gene YDR104C
  The level of expressed mRNA in the presence of chemical substance/The level of expressed mRNA in the absence of chemical substance: 1.7
Yeast gene YDR115W
  The level of expressed mRNA in the presence of chemical substance/The level of expressed mRNA in the absence of chemical substance: 2.3
Yeast gene YDR259C
  The level of expressed mRNA in the presence of chemical substance/The level of expressed mRNA in the absence of chemical substance: 0.5
Yeast gene YDR315C
  The level of expressed mRNA in the presence of chemical substance/The level of expressed mRNA in the absence of chemical substance: 9.4
Yeast gene YDR358W
  The level of expressed mRNA in the presence of chemical substance/The level of expressed mRNA in the absence of chemical substance: 2.5
Yeast gene YDR388W
  The level of expressed mRNA in the presence of chemical substance/The level of expressed mRNA in the absence of chemical substance: 1.0
Yeast gene YDR432W
  The level of expressed mRNA in the presence of chemical substance/The level of expressed mRNA in the absence of chemical substance: 0.6
Yeast gene YDR481C
  The level of expressed mRNA in the presence of chemical substance/The level of expressed mRNA in the absence of chemical substance: 0.9
Yeast gene YDR510W
  The level of expressed mRNA in the presence of chemical substance/The level of expressed mRNA in the absence of chemical substance: 1.0
Yeast gene YEL042W
  The level of expressed mRNA in the presence of chemical substance/The level of expressed mRNA in the absence of chemical substance: 0.5
Yeast gene YEL066W
  The level of expressed mRNA in the presence of chemical substance/The level of expressed mRNA in the absence of chemical substance: 2.2
Yeast gene YER039C
  The level of expressed mRNA in the presence of chemical substance/The level of expressed mRNA in the absence of chemical substance: 1.6
Yeast gene YER107C
  The level of expressed mRNA in the presence of chemical substance/The level of expressed mRNA in the absence of chemical substance: 2.5
Yeast gene YER130C
  The level of expressed mRNA in the presence of chemical substance/The level of expressed mRNA in the absence of chemical substance: 2.7
Yeast gene YFL028C
  The level of expressed mRNA in the presence of chemical substance/The level of expressed mRNA in the absence of chemical substance: 1.7
Yeast gene YFL043C
  The level of expressed mRNA in the presence of chemical substance/The level of expressed mRNA in the absence of chemical substance: 1.8
Yeast gene YGL158W
  The level of expressed mRNA in the presence of chemical substance/The level of expressed mRNA in the absence of chemical substance: 0.4
Yeast gene YGL229C
  The level of expressed mRNA in the presence of chemical substance/The level of expressed mRNA in the absence of chemical substance: 2.2
Yeast gene YGR136W
  The level of expressed mRNA in the presence of chemical substance/The level of expressed mRNA in the absence of chemical substance: 1.1
Yeast gene YGR189C
  The level of expressed mRNA in the presence of chemical substance/The level of expressed mRNA in the absence of chemical substance: 0.5
Yeast gene YGR213C
  The level of expressed mRNA in the presence of chemical substance/The level of expressed mRNA in the absence of chemical substance: 4.1
Yeast gene YGR257C
  The level of expressed mRNA in the presence of chemical substance/The level of expressed mRNA in the absence of chemical substance: 2.1
Yeast gene YHR004C
  The level of expressed mRNA in the presence of chemical substance/The level of expressed mRNA in the absence of chemical substance: 2.0
Yeast gene YHR071W
  The level of expressed mRNA in the presence of chemical substance/The level of expressed mRNA in the absence of chemical substance: 2.0
Yeast gene YHR139C
  The level of expressed mRNA in the presence of chemical substance/The level of expressed mRNA in the absence of chemical substance: 1.9
Yeast gene YHR142W
  The level of expressed mRNA in the presence of chemical substance/The level of expressed mRNA in the absence of chemical substance: 1.2
Yeast gene YIL123W
  The level of expressed mRNA in the presence of chemical substance/The level of expressed mRNA in the absence of chemical substance: 0.5
Yeast gene YIL140W
  The level of expressed mRNA in the presence of chemical substance/The level of expressed mRNA in the absence of chemical substance: 0.5
Yeast gene YJL073W
  The level of expressed mRNA in the presence of chemical substance/The level of expressed mRNA in the absence of chemical substance: 2.0
Yeast gene YJL089W
  The level of expressed mRNA in the presence of chemical substance/The level of expressed mRNA in the absence of chemical substance: 1.6
Yeast gene YJL116C
  The level of expressed mRNA in the presence of chemical substance/The level of expressed mRNA in the absence of chemical substance: 3.4
Yeast gene YJR004C
  The level of expressed mRNA in the presence of chemical substance/The level of expressed mRNA in the absence of chemical substance: 1.2
Yeast gene YJR086W
  The level of expressed mRNA in the presence of chemical substance/The level of expressed mRNA in the absence of chemical substance: 1.9
Yeast gene YKL008C
  The level of expressed mRNA in the presence of chemical substance/The level of expressed mRNA in the absence of chemical substance: 3.8

Reference: US20050112573A1, “Method of detecting toxic substance” (priority 2001, published 2005)
